Measurements taken from patent publication US9593123B2, “Triazolo[4,5-D]pyrimidine derivatives” (Hoffmann-La Roche Inc., priority 2013, dated 2017).

Tests used:
[1] = biological target: human CB2 receptor (Homo sapiens (Human), UniProt P34972); test: cAMP assay, CHO cells expressing human CB2 receptors; format: cell-based; conditions: functional cAMP assay, read-out: CB2 hcAMP EC50
Method: (§1) CHO cells expressing human CB1 or CB2 receptors are seeded 17-24 hours prior to the experiment 50.000 cells per well in a black 96 well plate with flat clear bottom (Corning Costar #3904) in DMEM (Invitrogen No. 31331), 1×HT supplement, with 10% fetal calf serum and incubated at 5% CO2 and 37° C. in a humidified incubator. The growth medium was exchanged with Krebs Ringer Bicarbonate buffer with 1 mM IBMX and incubated at 30° C. for 30 min. Compounds were added to a final assay volume of 100 μl and incubated for 30 min at 30° C. Using the cAMP-Nano-TRF detection kit the assay (Roche Diagnostics) was stopped by the addition of 50 μl lysis reagent (Tris, NaCl, 1.5% Triton X100, 2.5% NP40, 10% NaN3) and 50 μl detection solutions (20 μM mAb Alexa700-cAMP 1:1, and 48 μM Ruthenium-2-AHA-cAMP) and shaken for 2 h at room temperature. The time-resolved energy transfer is measured by a TRF reader (Evotec Technologies GmbH), equipped with a ND:YAG laser as excitation source. The plate is measured twice with the excitation at 355 nm and at the emission with a delay of 100 ns and a gate of 100 ns, total exposure time 10 s at 730 (bandwidth 30 nm) or 645 nm (bandwidth 75 nm), respectively. The FRET signal is calculated as follows: FRET=T730-Alexa730-P(T645-B645) with P=Ru730-B730/Ru645-B645, where T730 is the test well measured at 730 nM, T645 is the test well measured at 645 nm, B730 and B645 are the buffer controls at 730 nm and 645 nm, respectively. cAMP content is determined from the function of a standard curve spanning from 10 μM to 0.13 nM cAMP.
(§2) EC50 values were determined using Activity Base analysis (ID Business Solution, Limited). The EC50 values for a wide range of cannabinoid agonists generated from this assay were in agreement with the values published in the scientific literature.

[2] = biological target: human CB1 receptor (Homo sapiens (Human), UniProt P21554); test: cAMP assay, CHO cells expressing human CB1 receptors; format: cell-based; conditions: functional cAMP assay, read-out: CB1 hcAMP EC50
Sequence of human CB1 receptor (P21554 whole entry): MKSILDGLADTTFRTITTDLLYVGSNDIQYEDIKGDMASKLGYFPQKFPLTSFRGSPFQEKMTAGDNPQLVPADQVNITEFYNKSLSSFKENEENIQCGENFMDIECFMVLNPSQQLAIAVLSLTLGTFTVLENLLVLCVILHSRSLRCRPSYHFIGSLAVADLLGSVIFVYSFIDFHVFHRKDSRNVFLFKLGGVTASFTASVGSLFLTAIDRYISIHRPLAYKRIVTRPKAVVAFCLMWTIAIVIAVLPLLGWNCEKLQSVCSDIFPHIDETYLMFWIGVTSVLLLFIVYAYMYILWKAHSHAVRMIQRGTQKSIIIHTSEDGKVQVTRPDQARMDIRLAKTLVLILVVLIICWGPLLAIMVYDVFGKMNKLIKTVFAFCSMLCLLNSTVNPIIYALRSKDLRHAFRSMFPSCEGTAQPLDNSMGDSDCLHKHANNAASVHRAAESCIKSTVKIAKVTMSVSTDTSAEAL
Method: as §1, §2

Sequence of human CB2 receptor (P34972 whole entry): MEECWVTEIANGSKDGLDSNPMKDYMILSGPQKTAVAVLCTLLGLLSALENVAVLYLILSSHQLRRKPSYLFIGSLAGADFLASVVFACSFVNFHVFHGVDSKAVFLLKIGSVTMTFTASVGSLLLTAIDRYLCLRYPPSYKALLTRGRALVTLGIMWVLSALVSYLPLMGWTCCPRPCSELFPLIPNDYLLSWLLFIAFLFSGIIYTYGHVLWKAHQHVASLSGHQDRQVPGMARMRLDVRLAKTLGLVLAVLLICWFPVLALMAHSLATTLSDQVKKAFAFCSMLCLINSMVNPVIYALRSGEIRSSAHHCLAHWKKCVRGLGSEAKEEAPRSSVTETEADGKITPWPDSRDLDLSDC

SMILES	EC50 [1] [nM]	EC50 [2] [µM]
C[C@@]1(O)CCN(c2nc(N3CCOCC3)nc3c2nnn3Cc2ccccc2C(F)(F)F)C1 [Example 37, (3R)-3-Methyl-1-[5-morpholin-4-yl-3-[[2-(trifluoromethyl)phenyl]methyl]triazolo[4,5-d]pyrimidin-7-yl]pyrrolidin-3-ol]	23.6	> 10
CC(C)(C)Nc1nc(N2CCC(F)(F)C2)c2nnn(Cc3ccccc3Cl)c2n1 [Example 12, N-tert-Butyl-3-[(2-chlorophenyl)methyl]-7-(3,3-difluoropyrrolidin-1-yl)triazolo[4,5-d]pyrimidin-5-amine]	0.9	0.365
O[C@H]1CCN(c2nc(OCC(F)(F)F)nc3c2nnn3Cc2ccccc2Cl)C1 [Example 60, (3S)-1-[3-[(2-Chlorophenyl)methyl]-5-(2,2,2-trifluoroethoxy)triazolo[4,5-d]pyrimidin-7-yl]pyrrolidin-3-ol]	0.8	> 10
C[C@H](Oc1nc(N2CCC(F)(F)C2)c2nnn(Cc3nnnn3C)c2n1)C(F)(F)F [Example 73, 7-(3,3-Difluoropyrrolidin-1-yl)-3-[(1-methyltetrazol-5-yl)methyl]-5-[(2S)-1,1,1-trifluoropropan-2-yl]oxytriazolo[4,5-d]pyrimidine]	42.3	> 10
CC(C)S(=O)(=O)c1nc(N2CCC(F)(F)C2)c2nnn(Cc3ccccc3Cl)c2n1 [Example 88, 3-[(2-Chlorophenyl)methyl]-7-(3,3-difluoropyrrolidin-1-yl)-5-propan-2-ylsulfonyltriazolo[4,5-d]pyrimidine]	1.7	> 10
FC1(F)CCN(c2nc(OC3COC3)nc3c2nnn3Cc2ccccc2Cl)C1 [Example 49, 3-[(2-Chlorophenyl)methyl]-7-(3,3-difluoropyrrolidin-1-yl)-5-(oxetan-3-yloxy)triazolo [4,5-d]pyrimidine]	21.9	> 10
CC(=O)N[C@H]1CCN(c2nc(O[C@@H](C)C(F)(F)F)nc3c2nnn3Cc2ccccc2Cl)C1 [Example 80, N-[(3S)-1-[3-[(2-Chlorophenyl)methyl]-5-[(2S)-1,1,1-trifluoropropan-2-yl]oxytriazolo [4,5-d]pyrimidin-7-yl]pyrrolidin-3-yl]acetamide]	159	> 10
COc1ccc(Cn2nnc3c(N4CC[C@H](NC(C)=O)C4)nc(NC(C)(C)C)nc32)cc1 [Example 21, N-[(3S)-1-[5-(tert-Butylamino)-3-[(4-methoxyphenyl)methyl]triazolo[4,5-d]pyrimidin-7-yl]pyrrolidin-3-yl]acetamide]	141	> 10
FC(F)COc1nc(N2CCC(F)(F)C2)c2nnn(Cc3ccccc3Cl)c2n1 [Example 43, 3-[(2-Chlorophenyl)methyl]-5-(2,2-difluoroethoxy)-7-(3,3-difluoropyrrolidin-1-yl)triazolo[4,5-d]pyrimidine]	26.4	> 10
CC(C)(C)Nc1nc(N2CC[C@H](O)C2)c2nnn(Cc3ccccc3Cl)c2n1 [Example 28, (3S)-1-[5-(tert-Butylamino)-3-[(2-chlorophenyl)methyl]triazolo[4,5-d]pyrimidin-7-yl]pyrrolidin-3-ol]	2.3	> 10
FC1(F)CCN(c2nc(NC3COC3)nc3c2nnn3Cc2ccccc2Cl)C1 [Example 17, 3-[(2-Chlorophenyl)methyl]-7-(3,3-difluoropyrrolidin-1-yl)-N-(oxetan-3-yl)triazolo [4,5-d]pyrimidin-5-amine]	26.6	> 10
CC(C)Oc1nc(N2CCC(F)(F)C2)c2nnn(Cc3ccccc3Cl)c2n1 [Example 55, 3-[(2-Chlorophenyl)methyl]-7-(3,3-difluoropyrrolidin-1-yl)-5-propan-2-yloxytriazolo [4,5-d]pyrimidine]	1.2	> 10
FC1(F)CCN(c2nc(NC3CCC3)nc3c2nnn3Cc2ccccc2Cl)C1 [Example 11, 3-[(2-Chlorophenyl)methyl]-N-cyclobutyl-7-(3,3-difluoropyrrolidin-1-yl)triazolo[4,5-d]pyrimidin-5-amine]	2.6	> 10
FC1(F)CCN(c2nc(N3CCC3)nc3c2nnn3Cc2ccccc2Cl)C1 [Example 9, 5-(Azetidin-1-yl)-3-[(2-chlorophenyl)methyl]-7-(3,3-difluoropyrrolidin-1-yl)triazolo [4,5-d]pyrimidine]	1.6	0.363
CC(C)(O)COc1nc(N2CCC(F)(F)C2)c2nnn(Cc3ccccc3Cl)c2n1 [Example 58, 1-[3-[(2-Chlorophenyl)methyl]-7-(3,3-difluoropyrrolidin-1-yl)triazolo[4,5-d]pyrimidin-5-yl]oxy-2-methylpropan-2-ol]	15.7	> 10
CC(C)CSc1nc(N2CCC(F)(F)C2)c2nnn(Cc3ccccc3Cl)c2n1 [Example 92, 3-[(2-Chlorophenyl)methyl]-7-(3,3-difluoropyrrolidin-1-yl)-5-(2-methylpropylsulfanyl)triazolo[4,5-d]pyrimidine]	2.5	> 10
CN(c1nc(N2CCC(F)(F)C2)c2nnn(Cc3ccccc3Cl)c2n1)C(C)(C)C [Example 15, N-tert-Butyl-3-[(2-chlorophenyl)methyl]-7-(3,3-difluoropyrrolidin-1-yl)-N-methyltriazolo[4,5-d]pyrimidin-5-amine]	2.2	0.336
CCCOc1nc(N2CCC(F)(F)C2)c2nnn(Cc3ccccc3Cl)c2n1 [Example 59, 3-[(2-Chlorophenyl)methyl]-7-(3,3-difluoropyrrolidin-1-yl)-5-propoxytriazolo[4,5-d]pyrimidine]	0.9	> 10
FC(F)(F)COc1nc(N2CCC(F)(F)C2)c2nnn(Cc3ccccc3Cl)c2n1 [Example 40, 3-[(2-Chlorophenyl)methyl]-7-(3,3-difluoropyrrolidin-1-yl)-5-(2,2,2-trifluoroethoxy) triazolo[4,5-d]pyrimidine]	6.1	> 10
CC(O)CSc1nc(N2CCC(F)(F)C2)c2nnn(Cc3ccccc3Cl)c2n1 (stereo not shown) [Example 90, 1-[3-[(2-Chlorophenyl)methyl]-7-(3,3-difluoropyrrolidin-1-yl)triazolo[4,5-d]pyrimidin-5-yl]sulfanylpropan-2-ol]	15.6	> 10
CCS(=O)(=O)c1nc(N2CCC(F)(F)C2)c2nnn(Cc3ccccc3Cl)c2n1 [Example 86, 3-[(2-Chlorophenyl)methyl]-7-(3,3-difluoropyrrolidin-1-yl)-5-ethylsulfonyltriazolo [4,5-d]pyrimidine]	86.6	> 10
Cc1nonc1Cn1nnc2c(N3CCC(F)(F)C3)nc(O[C@@H](C)C(F)(F)F)nc21 [Example 74, 3-[[7-(3,3-Difluoropyrrolidin-1-yl)-5-[(2S)-1,1,1-trifluoropropan-2-yl]oxytriazolo[4,5-d]pyrimidin-3-yl]methyl]-4-methyl-1,2,5-oxadiazole]	1.8	> 10
FC1(F)CCN(c2nc(N3CCOCC3)nc3c2nnn3Cc2ccccc2Cl)C1 [Example 14, 4-[3-[(2-Chlorophenyl)methyl]-7-(3,3-difluoropyrrolidin-1-yl)triazolo[4,5-d]pyrimidin-5-yl]morpholine]	3.5	> 10
